In patent publication US9540391B2, “Isomannide derivatives as inhibitors of soluble epoxide hydrolase” (SANOFI, priority 2013, dated 2017):
Counter-ions that a name gives are not always drawn.

Biological target: T1, recombinant sEH (Homo sapiens, UniProt P34913)
T1 construct: made in house; host or cells: Sf9 insect cells
T1 sequence (P34913 1-555): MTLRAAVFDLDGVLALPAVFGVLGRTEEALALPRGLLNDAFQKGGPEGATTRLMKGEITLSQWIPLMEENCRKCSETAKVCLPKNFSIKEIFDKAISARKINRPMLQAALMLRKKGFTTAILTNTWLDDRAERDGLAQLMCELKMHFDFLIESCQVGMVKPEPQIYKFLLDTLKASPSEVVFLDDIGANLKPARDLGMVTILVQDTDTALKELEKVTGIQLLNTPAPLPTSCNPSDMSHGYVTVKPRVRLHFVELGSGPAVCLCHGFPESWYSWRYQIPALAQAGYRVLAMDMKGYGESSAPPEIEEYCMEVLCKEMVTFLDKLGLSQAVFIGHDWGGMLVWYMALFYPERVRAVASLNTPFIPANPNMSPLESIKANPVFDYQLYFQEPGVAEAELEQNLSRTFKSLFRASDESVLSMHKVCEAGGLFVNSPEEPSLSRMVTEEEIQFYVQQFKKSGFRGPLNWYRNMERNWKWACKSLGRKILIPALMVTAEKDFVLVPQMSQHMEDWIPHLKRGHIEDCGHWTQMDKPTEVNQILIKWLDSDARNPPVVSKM
Assay: biochemical screening assay for inhibition of soluble epoxide hydrolase (fluorometric, Phome substrate)
How it was run: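 Reading fluorescence before substrate addition and after completion corrected for autofluorescence. Reaction: 5 μM Phome, 2 nM recombinant human sEH (Sf9-expressed), compound 0.0001–10 μM, 25 mM Hepes with 0.01% albumin, 15 min pre-incubation then 60 min at 30 °C; IC50 derived from % inhibition.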

SMILES | IC50
O=C(Nc1ccccc1)NC1COC2C(C#Cc3ccsc3)COC12 [Example 303, 1-Phenyl-3-((3S,3aR,6S,-6aR)-6-thiophen-3-ylethynyl-hexahydro-furo[3,2-b]furan-3-yl)-urea] | 241 nM
O=C(NC1CCCCC1)N[C@H]1CO[C@H]2[C@@H]1OC[C@@H]2Nc1nccs1 [Example 13, 1-Cyclohexyl-3-[(3S,3aR,6S,6aR)-6-(thiazol-2-ylamino)-hexahydro-furo[3,2-b]furan-3-yl]-urea] | 167 nM
O=C(Nc1ccccc1-c1ccccc1)N[C@H]1CO[C@H]2[C@@H]1OC[C@@H]2C#Cc1ccsc1 [Example 307, 1-Biphenyl-2-yl-3-((3S,3aR,6S,6aR)-6-thiophen-3-ylethynyl-hexahydro-furo[3,2-b]furan-3-yl)-urea] | 59 nM
Cc1ncccc1O[C@H]1CO[C@H]2[C@@H]1OC[C@@H]2NC(=O)NC1(C#N)CCCCC1 [Example 220, 1-(1-Cyano-cyclohexyl)-3-[(3S,3aR,6S,6aS)-6-(2-methyl-pyridin-3-yloxy)-hexahydro-furo[3,2-b]furan-3-yl]-urea] | 506 nM
COc1cc(NC(=O)N[C@H]2CO[C@@H]3[C@@H]2OC[C@H]3C#Cc2ccccc2)cc(OC)c1 [Example 284, 1-(3,5-Dimethoxy-phenyl)-3-[(3S,3aR,6R)-6-((S)-phenylethynyl)-hexahydro-furo[3,2-b]furan-3-yl]-urea] | 71 nM
Cc1ncccc1O[C@H]1CO[C@H]2[C@@H]1OC[C@@H]2NC(=O)NC(C)c1ccc(S(C)(=O)=O)cc1 (stereo partly drawn) [Example 187, 1-[1-(4-Methanesulfonyl-phenyl)-ethyl]-3-[(3S,3aR,6S,6aS)-6-(2-methyl-pyridin-3-yloxy)-hexahydro-furo[3,2-b]furan-3-yl]-urea] | 44 nM
O=C(NC1CCCCC1)N[C@H]1CO[C@@H]2[C@@H](CCc3ccccn3)CO[C@@H]21 [Example 350, 1-Cyclohexyl-3-[(3S,3aR,6S,6aR)-6-(2-pyridin-2-yl-ethyl)-hexahydro-furo[3,2-b]furan-3-yl]-urea; trifluoroacetate] | 22 nM
Cc1ncccc1O[C@H]1CO[C@H]2[C@@H]1OC[C@@H]2NC(=O)NCc1cccnc1 [Example 177, 1-[(3S,3aR,6S,6aS)-6-(2-Methyl-pyridin-3-yloxy)-hexahydro-furo[3,2-b]furan-3-yl]-3-pyridin-3-ylmethyl-urea] | 456 nM
CC1CCC(NC(=O)N[C@H]2CO[C@H]3[C@@H]2OC[C@@H]3Oc2ccc(F)cc2)CC1 (stereo partly drawn) [Example 151, 1-[(3S,3aR,6S,6aS)-6-(4-Fluoro-phenoxy)-hexahydro-furo[3,2-b]furan-3-yl]-3-(4-methyl-cyclohexyl)-urea] | 8 nM
Cc1ncccc1O[C@H]1CO[C@H]2[C@@H]1OC[C@@H]2NC(=O)NC(C)(C)C(F)(F)F [Example 232, 1-[(3S,3aR,6S,6aS)-6-(2-Methyl-pyridin-3-yloxy)-hexahydro-furo[3,2-b]furan-3-yl]-3-(2,2,2-trifluoro-1,1-dimethyl-ethyl)-urea] | 268 nM
Cc1ncccc1OC1COC2C(NC(=O)NC3C4(C)CCC(C4)C3(C)C)COC12 [Example 195, 1-[(2R,3aS,5S,6S)-6-(2-Methyl-pyridin-3-yloxy)-hexahydro-furo[3,2-b]furan-3-yl]-3-((1S,4R)-1,3,3-tri-methyl-bicyclo[2.2.1]hept-2-yl)-urea] | 56 nM
Cc1ncccc1O[C@H]1CO[C@H]2[C@@H]1OC[C@@H]2NC(=O)NC1CCCN(C(=O)C2CC2)C1 (stereo partly drawn) [Example 85, 1-(1-Cyclopropanecarbonyl-piperidin-3-yl)-3-[(3S,3aR,6S,6aS)-6-(2-methyl-pyridin-3-yloxy)-hexahydro-furo[3,2-b]furan-3-yl]-urea] | 20 nM
CCN1CC(CNC(=O)N[C@H]2CO[C@H]3[C@@H]2OC[C@@H]3Oc2cccnc2C)CC1=O (stereo partly drawn) [Example 254, 1-(1-Ethyl-5-oxo-pyrrolidin-3-ylmethyl)-3-[(3S,3aR,6S,6aS)-6-(2-methyl-pyridin-3-yloxy)-hexahydro-furo[3,2-b]furan-3-yl]-urea] | 882 nM
O=C(Nc1ccc(Cl)c(Cl)c1)NC1COC2C(C#Cc3ccccc3)COC12 [Example 290, 1-(3,4-Dichloro-phenyl)-3-[(3S,3aR,6R)-6-((S)-phenylethynyl)-hexahydro-furo[3,2-b]furan-3-yl]-urea] | 13 nM
O=C(Nc1cccc(F)c1)N[C@H]1CO[C@H]2[C@@H]1OC[C@@H]2C#Cc1ccsc1 [Example 311, 1-(3-Fluoro-phenyl)-3-((3S,3aR,6S,6aR)-6-thiophen-3-ylethynyl-hexahydro-furo[3,2-b]furan-3-yl)-urea] | 146 nM
Cc1cc(CNC(=O)N[C@H]2CO[C@H]3[C@@H]2OC[C@@H]3Oc2cccnc2C)on1 [Example 171, 1-(3-Methyl-isoxazol-5-ylmethyl)-3-[(3S,3aR,6S,6aS)-6-(2-methyl-pyridin-3-yloxy)-hexahydro-furo[3,2-b]furan-3-yl]-urea] | 2350 nM
O=C(Nc1cccc(F)c1)N[C@H]1CO[C@H]2[C@@H]1OC[C@@H]2/C=C\c1ccccc1 [Example 329, 1-(3-Fluoro-phenyl)-3-[(3S,3aR,6S,6aR)-6-((Z)-styryl)-hexahydro-furo[3,2-b]furan-3-yl]-urea] | 95 nM
Cc1ncccc1OC1COC2C(NC(=O)NCC3CCCCC3(C)O)COC12 [Example 242, 1-((1R,2R)-2-Hydroxy-2-methyl-cyclohexylmethyl)-3-[(3S,3aR,6S,-6aS)-6-(2-methyl-pyridin-3-yloxy)-hexahydro-furo[3,2-b]furan-3-yl]-urea] | 37 nM

These reach a lower IC50. Values come first.

IC50 | SMILES
5 nM | O=C(NC1CCCCC1)N[C@H]1CO[C@H]2[C@@H]1OC[C@@H]2Oc1ccc(C(=O)O)cc1 [Example 11, 4-[(3S,3aS,6S,6aR)-6-(3-cyclohexyl-ureido)-hexahydro-furo[3,2-b]furan-3-yloxy]-benzoic acid]
1 nM | Cc1cc(O[C@H]2CO[C@H]3[C@@H]2OC[C@@H]3NC(=O)NC2CCCCC2)cc(C)n1 [Example 67, 1-Cyclohexyl-3-[(3S,3aR,6S,6aS)-6-(2,6-dimethyl-pyridin-4-yloxy)-hexa-hydro-furo[3,2-b]furan-3-yl]-urea]
3 nM | Cc1ncccc1O[C@H]1CO[C@H]2[C@@H]1OC[C@@H]2NC(=O)NC1CC(C)CC(C)(C)C1 (stereo partly drawn) [Example 256, 1-[(3S,3aR,6S,6aS)-6-(2-Methyl-pyridin-3-yloxy)-hexahydro-furo[3,2-b]furan-3-yl]-3-(3,3,5-trimethyl-cyclohexyl)-urea]
3 nM | Cn1ccnc1-c1ccc(O[C@H]2CO[C@H]3[C@@H]2OC[C@@H]3NC(=O)NC2CCCCC2)cc1 [Example 32, 1-Cyclohexyl-3-{(3S,3aR,6S,6aS)-6-[4-(1-methyl-1H-imidazol-2-yl)-phenoxy]-hexahydro-furo[3,2-b]furan-3-yl}-urea]
< 1 nM | Cc1cc(C)c(S[C@H]2CO[C@H]3[C@@H]2OC[C@@H]3NC(=O)NC2CCCCC2)cn1 [Example 53, 1-Cyclohexyl-3-[(3S,3aR,6S,6aS)-6-(4,6-dimethyl-pyridin-3-ylsulfanyl)-hexahydro-furo[3,2-b]furan-3-yl]-urea]
1 nM | CCc1nc(C)ccc1O[C@H]1CO[C@H]2[C@@H]1OC[C@@H]2NC(=O)NC1CCCCC1 [Example 38, 1-Cyclohexyl-3-[(3S,3aR,6S,6aS)-6-(2-ethyl-6-methyl-pyridin-3-yloxy)-hexahydro-furo[3,2-b]furan-3-yl]-urea]
2 nM | Cc1ncccc1O[C@H]1CO[C@H]2[C@@H]1OC[C@@H]2NC(=O)NC1CCCCC1 [Example 76, 1-cyclohexyl-3-[(3S,3aR,6S,6aS)-6-(2-methyl-pyridin-3-yloxy)-hexahydro-furo[3,2-b]furan-3-yl]-urea]
4 nM | CC1(c2ccc(O[C@H]3CO[C@H]4[C@@H]3OC[C@@H]4NC(=O)NC3CCCCC3)cc2)CCCCC1 [Example 124, 1-Cyclohexyl-3-{(3S,3aR,6S,6aS)-6-[4-(1-methyl-cyclohexyl)-phenoxy]-hexahydro-furo[3,2-b]furan-3-yl}-urea]
4 nM | O=C(NC1CCCCC1)N[C@H]1CO[C@H]2[C@@H]1OC[C@@H]2Oc1ccc(N2CCOCC2)nc1 [Example 73, 1-Cyclohexyl-3-[(3S,3aR,6S,6aS)-6-(6-morpholin-4-yl-pyridin-3-yloxy)-hexahydro-furo[3,2-b]furan-3-yl]-urea]
2 nM | Cc1csc(S[C@H]2CO[C@H]3[C@@H]2OC[C@@H]3NC(=O)NC2CCCCC2)n1 [Example 58, 1-Cyclohexyl-3-[(3S,3aR,6S,6aS)-6-(4-methyl-thiazol-2-ylsulfanyl)-hexa-hydro-furo[3,2-b]furan-3-yl]-urea]
4 nM | O=C(NC1CCCCC1)N[C@H]1CO[C@H]2[C@@H]1OC[C@@H]2Oc1ccc(C(F)(F)F)cc1 [Example 101, 1-Cyclohexyl-3-[(3S,3aR,6S,6aS)-6-(4-trifluoromethyl-phenoxy)-hexa-hydro-furo[3,2-b]furan-3-yl]-urea]
< 1 nM | Cc1cc(S[C@H]2CO[C@H]3[C@@H]2OC[C@@H]3NC(=O)NC2CCCCC2)nc(C)n1 [Example 61, 1-Cyclohexyl-3-[(3S,3aR,6S,6aS)-6-(2,6-dimethyl-pyrimidin-4-ylsulfanyl)-hexahydro-furo[3,2-b]furan-3-yl]-urea]
